Measured values published in publication PMC6981581, “N-(2-Arylmethylthio-4-Chloro-5-Methylbenzenesulfonyl)amide Derivatives as Potential Antimicrobial Agents—Synthesis and Biological Studies” (International Journal of Molecular Sciences, 2019).
Values after ≈ are worked out from the molar mass of the structure shown. Values joined by “and” are separate entries in the source; they are usually repeats but may differ in a detail not shown here. Equal values may be shown once. Read-outs that look alike come from different tables or passages of the source.

How the values were obtained:
Format in all cases: cell-based
[1] = test system: MCF-7 (breast cancer); assay: MTT cell viability assay; settings: Homo sapiens, MCF7, 72 h incubation, mean ± SD
Description: (§1) Analysis was performed using the MTT test and 72 h of incubation.
(§2) All chemicals were obtained from Sigma-Aldrich (St. Louis, MO, USA). The MCF-7 and HeLa cell lines were purchased from Cell Lines Services (Eppelheim, Germany), the HCT-116 cell line was purchased from ATCC (ATCC-No: CCL-247). Cells were cultured in Dulbecco’s modified Eagle’s medium (DMEM) supplemented with 10% fetal bovine serum, 2 mM glutamine, 100 units/mL penicillin, and 100 μg/mL streptomycin. Cultures were held in an incubator (Heraceus, HeraCell) in a humidified atmosphere with 5% CO2 at 37 °C.
(§3) Cell viability was evaluated using the MTT (3-(4,5-dimethylthiazol-2-yl)-2,5-diphenyltetrazolium bromide) assay. Stock solutions of the studied compounds were obtained in 100% DMSO. […] Cells at a density of 5 × 10^3 cells/well, seeded in 96-well plates, were treated for 72 h with the tested compounds in the concentration range 1–100 μM (1, 10, 25, 50 and 100 μM). After treatment, cells were incubated for 2 h with MTT (0.5 mg/mL) at 37 °C. Cells were lysed with DMSO and the absorbance of the formazan solution was measured at 550 nm with a plate reader (1420 multilabel counter, Victor, Jügesheim, Germany). Values are expressed as the mean ± SD of at least three independent experiments conducted in triplicate.

[2] = test system: HCT-116 (colon cancer); assay: MTT cell viability assay; settings: Homo sapiens, 72 h incubation, mean ± SD
Description: as §1, §2, §3

[3] = test system: HeLa (cervical cancer); assay: MTT cell viability assay; settings: Homo sapiens, 72 h incubation, mean ± SD
Description: as §1, §2, §3

[4] = test system: HaCaT cell line (human keratinocyte); assay: MTT cell viability assay; settings: MTT assay, 72 h incubation, mean ± SD, read-out: IC50 HaCaT
[5] = test system: Pseudomonas aeruginosa ATCC 15442; assay: Broth dilution MIC/MBC, reference strain; settings: for MBC/MIC: P. a. ATCC 15442; for MBC / MIC: Pseudomonas aeruginosa, ATCC15442
Description: (§4) The tests were carried out using a serial dilution method, allowing the determination of MIC (minimal concentration inhibiting bacterial growth), MBC (minimal bactericidal concentration), and MFC (minimal fungicidal concentration) values.
(§5) Antimicrobial activity was tested using the following reference strains: Staphylococcus aureus ATCC 6538 (MSSA), Staphylococcus aureus ATCC 43300 (MRSA), Staphylococcus epidermidis PCM 2118, Escherichia coli ATCC 11229, Pseudomonas aeruginosa ATCC 15442, Proteus vulgaris NCTC 4635, Enterococcus faecalis ATCC 11420, and Candida albicans ATCC 10231.
(§6) A broth dilution method was used to determine minimal inhibitory concentration (MIC) for tested compounds as recommended by Clinical Laboratory Standards Institute (CLSI) guidelines. Investigated compounds were diluted in Mueller Hinton Broth 2 (Sigma-Aldrich Co., St. Louis, MO, USA) in polypropylene 96-well plates and initial inoculum 5 × 10^5 cfu/mL were incubated at 37 °C for 18 h. MIC was taken as the lowest drug concentration at which an observable growth was inhibited. […] The loopful (10 µL) of the tested sample was transferred to Tryptic Soy Agar (TSA, Becton-Dickinson, Franklin Lakes, NJ, USA) and incubated at 37 °C for 48 h. […] Drug Solutions were made fresh on the day of the assay. All experiments were performed in triplicate.

[6] = test system: Escherichia coli ATCC 11229; assay: Broth dilution MIC/MBC, reference strain; settings: for MBC/MIC: E. c. ATCC 11229; for MBC / MIC: Escherichia coli, ATCC11229
Description: as §4, §5, §6

[7] = test system: Staphylococcus aureus ATCC 6538 (MSSA); assay: Broth dilution MIC/MBC, reference strain; settings: for MBC/MIC: S. a. ATCC 6538; for MBC / MIC: Staphylococcus aureus
Description: as §4, §5, §6

[8] = test system: Staphylococcus epidermidis PCM 2118; assay: Broth dilution MIC/MBC, reference strain; settings: for MBC/MIC: S. e. PCM 2118
Description: as §4, §5, §6

[9] = test system: Enterococcus faecalis ATCC 11420; assay: Broth dilution MIC/MBC, reference strain; settings: for MBC/MIC: E. f. ATCC 11420; for MBC / MIC: Enterococcus faecalis, ATCC11420
Description: as §4, §5, §6

[10] = test system: Proteus vulgaris NCTC 4635; assay: Broth dilution MIC/MBC, reference strain; settings: for MBC/MIC: P. v. NCTC 4635; for MBC / MIC: Proteus vulgaris, NCTC4635
Description: as §4, §5, §6

[11] = test system: Staphylococcus aureus ATCC 43300 (MRSA); assay: Broth dilution MIC/MBC, reference strain; settings: for MBC/MIC: S. a. ATCC 43300; for MBC / MIC: Staphylococcus aureus
Description: as §4, §5, §6

[12] = test system: Candida albicans ATCC 10231; assay: Broth dilution MIC/MFC, reference fungal strain; settings: for MFC/MIC: C. a. ATCC 10231; for MFC / MIC: Candida albicans, ATCC10231
Description: as §4, §5, §6

[13] = P. aeruginosa ATCC 15442, read-out: MBC
[14] = P. aeruginosa ATCC 15442, read-out: MIC
[15] = E. coli ATCC 11229, read-out: MBC
[16] = E. coli ATCC 11229, read-out: MIC
[17] = S. aureus ATCC 6538, read-out: MBC
[18] = S. aureus ATCC 6538, read-out: MIC
[19] = Staphylococcus epidermidis, PCM2118, S. epidermidis PCM 2118, read-out: MIC
[20] = E. faecalis ATCC 11420, read-out: MBC
[21] = E. faecalis ATCC 11420, read-out: MIC
[22] = P. vulgaris NCTC 4635, read-out: MBC
[23] = P. vulgaris NCTC 4635, read-out: MIC
[24] = S. aureus ATCC 43300, read-out: MBC
[25] = S. aureus ATCC 43300, read-out: MIC
[26] = C. albicans ATCC 10231, read-out: MFC
[27] = C. albicans ATCC 10231, read-out: MIC

SMILES	IC50 [1]	IC50 [2]	IC50 [3]	IC50 [4]	MBC/MIC [5]	MBC [5, 13]	MIC [5, 14]	MBC/MIC [6]	MBC [6, 15]	MIC [6, 16]	MBC/MIC [7]	MBC [7, 17]	MIC [7, 18]	MBC/MIC [8]	MIC [8, 19]	MBC/MIC [9]	MBC [9, 20]	MBC/MIC [10]	MBC/MIC [11]	MFC/MIC [12]	other results
Cc1cc(S(=O)(=O)NC(=O)C=Cc2ccccc2)c(SCc2cccc(C(F)(F)F)c2)cc1Cl [Compound 15, N-[4-Chloro-5-methyl-2-(3-trifluoromethylbenzylthio)benzenesulfonyl]cinnamamide]	93 ± 3 µM	86 ± 2 µM	165 ± 9 µM	79 µg/mL and 150 µM	2	128 µg/mL (≈ 243 µM)	64 µg/mL (≈ 122 µM)	1	128 µg/mL (≈ 243 µM)	128 µg/mL (≈ 243 µM)	16	128 µg/mL (≈ 243 µM)	8 µg/mL (≈ 15.2 µM)	1	8 µg/mL (≈ 15.2 µM)	>8	> 128 µg/mL	>2	16	2	MBC ([8]; S. epidermidis PCM 2118): 8 µg/mL (≈ 15.2 µM); MBC ([8]; Staphylococcus epidermidis, PCM2118, S. epidermidis PCM 2118, read-out: MBC): 4 to 16 µg/mL (≈ 7.6 to 30.4 µM); MIC [9, 21]: 16 µg/mL (≈ 30.4 µM); MBC [10, 22]: > 128 µg/mL; MIC [10, 23]: 64 µg/mL (≈ 122 µM); MBC [11, 24]: 128 µg/mL (≈ 243 µM); MIC [11, 25]: 8 µg/mL (≈ 15.2 µM); MFC [12, 26]: 128 µg/mL (≈ 243 µM); MIC [12, 27]: 64 µg/mL (≈ 122 µM)
Cc1cc(S(=O)(=O)NC(=O)C=Cc2ccccc2)c(SCc2ccccc2)cc1Cl [Compound 13, N-{[2-(Benzylthio)-4-chloro-5-methylphenyl]sulfonyl}cinnamamide]					>1			>1			>4			>4		>1		>1	>4	2	MBC [5]: > 128 µg/mL; MIC [5]: 128 µg/mL (≈ 279 µM); MBC [6]: > 128 µg/mL; MIC [6]: 128 µg/mL (≈ 279 µM); MBC [7]: > 128 µg/mL; MIC [7]: 32 µg/mL (≈ 69.9 µM); MIC ([8]; Staphylococcus epidermidis, PCM2118): 32 µg/mL (≈ 69.9 µM); MBC ([8]; Staphylococcus epidermidis, PCM2118, S. epidermidis PCM 2118): > 128 µg/mL; MBC [9]: > 128 µg/mL; MIC [9]: > 128 µg/mL; MBC [10]: > 128 µg/mL; MIC [10]: 128 µg/mL (≈ 279 µM); MBC [11]: > 128 µg/mL; MIC [11]: 32 µg/mL (≈ 69.9 µM); MFC [12]: 128 µg/mL (≈ 279 µM); MIC [12]: 64 µg/mL (≈ 140 µM)
Cc1cc(S(=O)(=O)NC(=O)C=Cc2ccccc2)c(SCc2ccc(C(F)(F)F)cc2)cc1Cl [Compound 14, N-[4-Chloro-5-methyl-2-(4-trifluoromethylbenzylthio)benzenesulfonyl]cinnamamide]	73 ± 1 µM	81 ± 1 µM	96 ± 5 µM	147 µg/mL and 280 µM	2	128 µg/mL (≈ 243 µM)	64 µg/mL (≈ 122 µM)	1	128 µg/mL (≈ 243 µM)	128 µg/mL (≈ 243 µM)	16	128 µg/mL (≈ 243 µM)	8 µg/mL (≈ 15.2 µM)	2	8 µg/mL (≈ 15.2 µM)	>8	> 128 µg/mL	>1	16	2	MIC [9, 21]: 16 µg/mL (≈ 30.4 µM); MBC [10, 22]: > 128 µg/mL; MIC [10, 23]: 128 µg/mL (≈ 243 µM); MBC [11, 24]: 128 µg/mL (≈ 243 µM); MIC [11, 25]: 8 µg/mL (≈ 15.2 µM); MFC [12, 26]: 128 µg/mL (≈ 243 µM); MIC [12, 27]: 64 µg/mL (≈ 122 µM)
